The text below walks through data of ChEMBL document CHEMBL5252620, “Introducing Conformational Restraints on 25CN-NBOH: A Selective 5-HT2A Receptor Agonist” (ACS Med Chem Lett, 2023).

Values joined by “and” are separate entries in the source; they are usually repeats but may differ in a detail not shown here. Identical values can stand only once. Active and inactive are the calls of the source. The rule behind the calls is not given here.

Test [1] deals with T1, 5-hydroxytryptamine receptor 2C (Homo sapiens) (UniProt P28335).
T1 sequence (whole entry): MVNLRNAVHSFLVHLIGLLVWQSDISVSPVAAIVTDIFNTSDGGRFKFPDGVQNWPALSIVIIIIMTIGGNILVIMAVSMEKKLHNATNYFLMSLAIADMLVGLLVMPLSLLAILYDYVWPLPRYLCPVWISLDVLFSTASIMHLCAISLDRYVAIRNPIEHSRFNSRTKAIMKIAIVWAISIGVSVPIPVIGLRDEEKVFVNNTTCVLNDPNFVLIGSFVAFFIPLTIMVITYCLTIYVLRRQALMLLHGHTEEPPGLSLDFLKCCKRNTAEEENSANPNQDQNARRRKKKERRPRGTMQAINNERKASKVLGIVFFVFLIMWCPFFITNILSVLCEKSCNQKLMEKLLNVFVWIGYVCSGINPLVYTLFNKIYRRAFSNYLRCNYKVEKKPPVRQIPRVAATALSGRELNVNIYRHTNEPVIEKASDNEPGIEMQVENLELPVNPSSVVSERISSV
Kind of test: Agonist activity at 5-HT2CR (unknown origin) stably expressed in HEK293 cells at 10 to 100 uM measured after 1 hr by fluorescence based Ca2+/Fluo-4 assay. In kind it is cell-based. The settings on record: filed as agonist, dose 10-100 µM.

Test [2] concerns the target 5-hydroxytryptamine receptor 2A (Homo sapiens, UniProt P28223). Kind of test: Agonist activity at 5-HT2AR (unknown origin) stably expressed in HEK293 cells measured after 1 hr by fluorescence based Ca2+/Fluo-4 assay. In kind it is cell-based.
Test [3] has as its target T1, 5-hydroxytryptamine receptor 2C (Homo sapiens). The experiment in a line: Agonist activity at 5-HT2CR (unknown origin) stably expressed in HEK293 cells at 30 to 100 uM measured after 1 hr by fluorescence based Ca2+/Fluo-4 assay. In kind it is cell-based. The following applies: filed as agonist, dose 30-100 µM.
Test [4] has as its target T2, 5-hydroxytryptamine receptor 2C (Homo sapiens, UniProt P28335).
T2 sequence (P28335 whole entry): T1 sequence (whole entry)
Description: Agonist activity at 5-HT2CR (unknown origin) stably expressed in HEK293 cells measured after 1 hr by fluorescence based Ca2+/Fluo-4 assay

Test [5] deals with T1, 5-hydroxytryptamine receptor 2C (Homo sapiens). Kind of test: Agonist activity at 5-HT2CR (unknown origin) stably expressed in HEK293 cells assessed as maximal response measured after 1 hr by fluorescence based Ca2+/Fluo-4 assay relative to control. Format: cell-based. The following applies: filed as agonist.

Chain of 5-hydroxytryptamine receptor 2A (P28223 whole entry): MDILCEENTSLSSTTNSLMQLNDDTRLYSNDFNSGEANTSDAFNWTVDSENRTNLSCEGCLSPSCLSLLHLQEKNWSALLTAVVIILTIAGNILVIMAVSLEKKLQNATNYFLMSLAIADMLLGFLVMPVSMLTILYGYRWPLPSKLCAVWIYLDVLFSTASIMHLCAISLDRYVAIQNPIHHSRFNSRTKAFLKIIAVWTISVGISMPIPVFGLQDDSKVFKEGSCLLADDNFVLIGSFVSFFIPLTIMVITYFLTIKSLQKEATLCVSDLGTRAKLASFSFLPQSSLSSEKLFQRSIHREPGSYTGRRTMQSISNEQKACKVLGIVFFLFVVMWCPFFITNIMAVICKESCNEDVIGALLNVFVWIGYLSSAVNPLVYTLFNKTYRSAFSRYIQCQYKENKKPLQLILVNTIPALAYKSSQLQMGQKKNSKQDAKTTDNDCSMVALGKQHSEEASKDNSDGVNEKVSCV

Take `COc1cc(C[C@@H]2CCC[C@@H](c3ccccc3O)N2)c(OC)cc1C#N`: in test [1], the result was Active. In addition, the EC50 in test [2] (read-out: EC50) was determined as 91 nM.
Regarding `COc1cc(C[C@H]2CCC[C@H](c3ccccc3O)N2)c(OC)cc1C#N`, in test [1], the outcome was Active. Further, the EC50 in test [2] (read-out: EC50) was 930 nM.
Consider `COc1cc(CC2CCCC(c3ccccc3O)N2)c(OC)cc1C#N` (centres undefined), for which the result in test [3] was Active. For the same molecule, the values for the EC50 in test [2] (read-out: EC50) and in test [2] (read-out: pEC50 (converted)) were 2700 nM and 3550 nM, respectively.
As for `COc1cc(CCNCc2ccccc2O)c(OC)cc1C#N`, the EC50 in test [4] is 178 nM and 170 nM. Further, the Rmax in test [5] is 78%.
